Structures are written as SMILES.

From US12129257B1, “Imidazo[1,2-a]pyrazine compounds as CK2 inhibitors” (KING FAISAL UNIVERSITY, priority 2023, dated 2024) come the findings set out here.

One test relates to PC3 (prostate). The test is described as follows: In vitro cytotoxic activity (MTT) assay, PC3. In kind it is cell-based. To be noted: Homo sapiens, Prostate cell; PC3 (prostate) cells, exposed for 96 hours; read-out: IC50, 50% inhibition of cell proliferation. Here is the method: (§1) Compounds 1a-12a and 1b-12b were screened for their in vitro cytotoxic activity utilizing a 3-(4,5-dimethyl-thiazol-2-yl)-2,5-diphenyltetrazolium bromide (MTT) assay against selected cancer human cell lines consisting of PC3 (prostate), HCT116 (colon), A375 (melanoma), H1299 (lung), MIAPaCa-2 (pancreas), HL60 (leukemia), MCF7 (breast), MDA-MB-231 (breast) (T. Mosmann, J. Immunol. Meth., 1983, 65, 55-63). The cells were cultured at 37° C. in RMPI1640 medium supplemented with 10% fetal bovine serum, 50 IU/mL penicillin, and 50 μg/mL streptomycin in a 5% CO2 incubator. All cells were sub-cultured 3 times/week by trypsinisation. Viable cells were seeded and allowed to adhere for 12 h before a test drug was added in 96-well plates at an initial density of 1.0×10^5 cells/mL. Tumor cell lines were separately exposed to various concentrations of the tested compounds followed by incubation at a temperature of 37° C. during 96 hours inside a medium of fresh RMPI1640. Cells were subsequently incubated at 37° C. using MTT at 0.5 mg/mL during 4 hours. After removal of supernatant, formazan crystals were dissolved in isopropanol and the optical density was measured at 570 nm. CX-4945 was used as a positive control.

A further test has as its system H1299 (lung). Kind of test: In vitro cytotoxic activity (MTT) assay, H1299. The class given is cell-based. To be noted: Homo sapiens, NCI-H1299; H1299 (lung) cells, exposed for 96 hours; read-out: IC50, 50% inhibition of cell proliferation. Here is the method:
as §1

Another test has as its system HCT116 (colon). Kind of test: In vitro cytotoxic activity (MTT) assay, HCT116. To be noted: Homo sapiens, HCT-116; HCT116 (colon) cells, exposed for 96 hours; read-out: IC50, 50% inhibition of cell proliferation. In kind it is cell-based. The procedure: as §1
The subject of another test is MDA-MB-231 (breast). Kind of test: In vitro cytotoxic activity (MTT) assay, MDA-MB-231. The class given is cell-based. Particulars: Homo sapiens; MDA-MB-231 (breast) cells, exposed for 96 hours; read-out: IC50, 50% inhibition of cell proliferation. The procedure: as §1
A further test has as its system A375 (melanoma). Kind of test: In vitro cytotoxic activity (MTT) assay, A375. In kind it is cell-based. To be noted: Homo sapiens, A-375; A375 (melanoma) cells, exposed for 96 hours; read-out: IC50, 50% inhibition of cell proliferation. The procedure: as §1
The next test deals with MCF7 (breast). Kind of test: In vitro cytotoxic activity (MTT) assay, MCF7. The class given is cell-based. Particulars: Homo sapiens; MCF7 (breast) cells, exposed for 96 hours; read-out: IC50, 50% inhibition of cell proliferation. The procedure:
as §1

In the next test the test system is MIAPaCa-2 (pancreas). The test is described as follows: In vitro cytotoxic activity (MTT) assay, MIAPaCa-2. In kind it is cell-based. To be noted: Homo sapiens, MIA PaCa-2; MIAPaCa-2 (pancreas) cells, exposed for 96 hours; read-out: IC50, 50% inhibition of cell proliferation. The procedure:
as §1

A further test deals with HL60 (leukemia). Kind of test: In vitro cytotoxic activity (MTT) assay, HL60. In kind it is cell-based. To be noted: Homo sapiens, HL-60; HL60 (leukemia) cells, exposed for 96 hours; read-out: IC50, 50% inhibition of cell proliferation. Here is the method:
as §1

Test [1] deals with T1, recombinant human CK2 (RRBB-holoenzyme) (Homo sapiens, UniProt P68400).
T1 construct: purchased Millipore
The test is described as follows: CK2 Kinase Assay (33P-ATP, filter plate). In kind it is biochemical. To be noted: recombinant human CK2, final ATP concentration 15 μM, 10 min at 30° C.; read-out: protein kinase CK2 activity IC50. The procedure:
CK2 Kinase Assay was conducted using the protocol as described in Pierre F. et al; J. Med. Chem. 2011, 54, 635-654. The tested compounds in aqueous solution were added at a volume of 10 μL to a reaction mixture comprising 10 μL of assay dilution buffer (ADB; 20 mM MOPS, pH 7.2, 25 mM β-glycerol phosphate, 5 mM EGTA, 1 mM sodium orthovanadate, and 1 mM dithiothreitol), 10 μL of substrate peptide (RRRDDDSDDD, dissolved in ADB at a concentration of 1 mM), 10 μL of recombinant human CK2 (RRBB-holoenzyme, 25 ng dissolved in ADB; Millipore). Reactions were initiated by the addition of 10 μL of ATP solution (90%75 mMMgCl2, 75 μM ATP (final ATP concentration: 15 μM) dissolved in ADB; 10% [γ-33P] ATP (stock 1mCi/100 μL; 3000 Ci/mmol (Perkin-Elmer) and maintained for 10 min at 30° C. The reactions were quenched with 100 μL of 0.75% phosphoric acid and then transferred to and filtered through a phosphor cellulose filter plate (Millipore). After washing each well five times with 0.75% phosphoric acid, the plate was dried under vacuum for 5 min and, following the addition of 15 μL of scintillation fluid to each well, the residual radioactivity was measured using a Wallac luminescence counter. The IC50 values were derived from eight concentrations of test inhibitors.

T1 sequence (P68400 whole entry): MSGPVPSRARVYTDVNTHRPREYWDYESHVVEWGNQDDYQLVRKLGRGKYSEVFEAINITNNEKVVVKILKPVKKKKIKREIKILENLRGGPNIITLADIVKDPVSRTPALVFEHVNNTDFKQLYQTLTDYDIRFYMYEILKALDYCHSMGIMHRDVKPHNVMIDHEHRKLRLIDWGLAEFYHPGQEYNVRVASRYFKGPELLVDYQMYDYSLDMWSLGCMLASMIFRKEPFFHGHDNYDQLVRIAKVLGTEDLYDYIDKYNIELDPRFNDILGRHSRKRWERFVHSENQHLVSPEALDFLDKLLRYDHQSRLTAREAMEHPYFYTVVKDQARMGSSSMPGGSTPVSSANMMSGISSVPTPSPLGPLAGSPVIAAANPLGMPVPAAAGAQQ
T1 sequence (P67870 whole entry partner): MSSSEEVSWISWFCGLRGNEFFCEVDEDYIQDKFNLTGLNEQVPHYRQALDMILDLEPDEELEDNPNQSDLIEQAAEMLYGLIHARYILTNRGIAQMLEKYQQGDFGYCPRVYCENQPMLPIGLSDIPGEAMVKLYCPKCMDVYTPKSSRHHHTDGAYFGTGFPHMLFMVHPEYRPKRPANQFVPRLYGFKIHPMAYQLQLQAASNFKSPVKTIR

Regarding `O=C(O)c1ccc2c(c1)nc(Nc1cccc(Cl)c1)c1ccncc12` [CX-4945, Silmitasertib, reference compound], the IC50 was 2 µM with PC3 (prostate); 2.3 µM in the test with H1299 (lung); 2.3 µM with HCT116 (colon); 6.2 µM in the test with MDA-MB-231 (breast); 4.1 µM in the test with A375 (melanoma); 9.1 µM in the test with MCF7 (breast). Also, the results for the IC50 in the test with MIAPaCa-2 (pancreas) and in the test on HL60 (leukemia) were 1 µM and 3.7 µM, respectively.

As for `FC(F)(F)c1cccc(Nc2c(-c3ccncn3)nc3cnccn23)c1` [Compound 2b, 2-(pyrimidin-4-yl)-N-(3-(trifluoromethyl)phenyl)imidazo[1,2-a]pyrazin-3-amine], the IC50 in the test on PC3 (prostate) was 1.4 µM; in the test with H1299 (lung), 1.2 µM; in the test with HCT116 (colon), 1.5 µM; with MDA-MB-231 (breast) it was 4.2 µM; in the test with A375 (melanoma), 3.5 µM; in the test with MCF7 (breast) it was 5 µM. Also, the figures for the IC50 (in test [1]; in the test on MIAPaCa-2 (pancreas); in the test on HL60 (leukemia)) were 0.098 µM, 1.6 µM and 4.5 µM, respectively.

With `FC(F)(F)c1cccc(Nc2c(-c3ccncc3)nc3cnccn23)c1` [Compound 3a, 2-(pyridin-4-yl)-N-(3-(trifluoromethyl)phenyl)imidazo[1,2-a]pyrazin-3-amine], the IC50 in the test on PC3 (prostate) came to 1.2 µM; in the test on H1299 (lung), 1.5 µM; with HCT116 (colon), 1.7 µM; with MDA-MB-231 (breast), 4.6 µM; with A375 (melanoma), 3.4 µM; in the test with MCF7 (breast), 5.1 µM. For the same compound, the IC50 in [1] stood at 0.115 µM; with MIAPaCa-2 (pancreas), 1.3 µM; with HL60 (leukemia), 4.4 µM.
